Measured values taken from patent US20230406883A1, “COMPOUNDS AND THEIR USE IN TREATMENT OF TACHYKININ RECEPTOR MEDIATED DISORDERS” (Embark Biotech ApS, priority 2020, published 2023).
Numbered stars: 1 amine (or outer) side, 2 acyl side, 3 side chain; on linkers, the order of the positions; unused ones are H or OH. Square brackets hold non-standard residues; d marks the D form. Side chains are listed from the residue outwards. Peptide text beside a SMILES is read from it. * marks the point of attachment. X1 = O=C(O)CCCCCCCCCCCCCCCCC(=O)N[C@@H](CCC(=O)NCCCNCCCCNCCCN*)C(=O)O; C18 diacid = O=C(O)CCCCCCCCCCCCCCCCC(=O)*; γGlu = O=C(O)[C@H](CCC(=O)[*:2])N[*:1]; εLys = N[C@@H](CCCCN[*:1])C(=O)[*:2]; NMeL = CN[C@@H](CC(C)C)C(=O)O; Suc = O=C(CCC(=O)[*:2])[*:1]; Nle = CCCC[C@H](N)C(=O)O

What was measured:
[1] = Energy expenditure screening by indirect calorimetry in diet-induced obese mice; type: in vivo; conditions: DIO mice, 0.5 mg/kg s.c., increase over vehicle
Experimental: Indirect calorimetry was used to evaluate the ability of individual peptide analogues to dose-dependently increase energy expenditure (EE) we used metabolic cages and indirect calorimetry measured by the Promethion system. To this end, oxygen consumption was used as a surrogate measure for EE. Substrate preference (fat or carbohydrate) was evaluated using the respiratory exchange ratio (RER). In parallel, behavioral information such as walking distance and water and food intake were recorded.
Prior to experimentation, DIO mice were transferred to habituation cages for at least 10 days (5 days outside and at least 5 days in the Sable Systems gas analyzer module) to acclimatize. For all in vivo compound tests for EE evaluation, mice received subcutaneous injections between 2 and 4 pm.
Energy expenditure screening: After habituation, mice were subcutaneously injected with 0.5 mg/kg peptide analogue in a volume of 2 ml/kg. Mice were injected q.a.d. (quaque altera die) and received a total of two injections. EE was evaluated and increase over vehicle was calculated as percent of mean oxygen consumption over a 30-hour period after injection. Prior to injection peptide analogues were dissolved to 0.25 mg/ml in in vivo buffer.

[2] = in vivo; set-up: species or system mice; conditions: mouse
Experimental: Pharmacokinetics: To evaluate the in vivo half-life of individual peptide analogues we used wild type lean mice at around 10 weeks of age injected once with a peptide analogue. For each sample time point 3-4 mice were used and blood was drawn from the submandibular vein at indicated time points following injection. Prior to injection mice were given ad libitum access to standard chow diet. Mice were subcutaneously injected with 0.5 mg/kg peptide analogue in a volume of 2 ml/kg. The amount of peptide analogue and metabolite(s) present in blood samples were measured by TF-LC-MS and MetID-LC-MS, respectively. Sample preparation: One volume of plasma is precipitated with three volumes of ethanol (with internal standard). The mixture is centrifuged at 13000 g for 20 min. One volume of supernatant is diluted with two volumes of Milli-Q water (1% formic acid). Calibration curve: peptide analogue was spiked into blank mouse plasma. Range: 0.5 to 2000 nM (linear 1/x2).

Structure (SMILES): CCCC[C@H](NC(=O)[C@H](CC(C)C)N(C)C(=O)CNC(=O)[C@@H](NC(=O)[C@H](Cc1ccc(O)cc1)NC(=O)[C@H](CCCCN)NC(=O)[C@H](CC(=O)O)NC(=O)[C@@H](N)CCCCNC(=O)[C@@H](N)CCCCNC(=O)CC[C@H](NC(=O)CCCCCCCCCCCCCCCCC(=O)O)C(=O)O)C(C)C)C(N)=O [compound 321, *Asp;Lys;Tyr;Val;Gly;NmLeu;Nle;NH2] (H-K([εLys-γGlu-C18 diacid])DKYVG[NMeL][Nle]-NH2)
- Energy expenditure (percent of vehicle; based on 30 h average vO2) [1]: 5% of vehicle
- Plasma exposure [2 h] [2]: 2266 nM
- Plasma exposure [26 h] [2]: 763 nM

Structure (SMILES): CCCC[C@H](NC(=O)[C@H](CC(C)C)N(C)C(=O)CNC(=O)[C@@H](NC(=O)[C@H](Cc1ccc(O)cc1)NC(=O)[C@H](CCCCN)NC(=O)[C@H](CC(=O)O)NC(=O)CCC(=O)NCCCNCCCCNCCCNC(=O)CC[C@H](NC(=O)CCCCCCCCCCCCCCCCC(=O)O)C(=O)O)C(C)C)C(N)=O [compound 318, *Asp;Lys;Tyr;Val;Gly;NmLeu;Nle;NH2] ({X1-Suc}-DKYVG[NMeL][Nle]-NH2)
- Energy expenditure (percent of vehicle; based on 30 h average vO2) [1]: 0% of vehicle
- Plasma exposure [26 h] [2]: BLLQ
- level at time molar at 2 h ([2]; sc, 0.5 mg/kg): 237 nM
